Assay results: patent US20260014122A1, “DRUG FOR LOWERING BLOOD LDL CHOLESTEROL” (KOWA COMPANY, LTD., priority 2022, published 2026)

Test system: patient of a nonalcoholic fatty liver disease (NAFLD)
Assay: Effect of compound A on blood LDL-C and cholesterol synthesis/absorption markers in NAFLD patients, compared with placebo
Type: in vivo, human
Conditions: for fasting blood LDL-C concentration (rate of change from baseline): FIG. 1
[1] = NAFLD patients, 0.4 mg per day oral, 8 weeks, vs placebo, FIG. 3

With `CC[C@@H](Oc1cccc(CN(CCCOc2ccc(OC)cc2)c2nc3ccccc3o2)c1)C(=O)O` [compound A, (R)-2-[3-[[N-(benzoxazol-2-yl)-N-3-(4-methoxyphenoxy)propyl]aminomethyl]phenoxy]butyric acid] the “fasting blood LDL-C concentration (rate of change from baseline)” value (NAFLD patients who did not take any existing agent for reducing LDL-C, 0.4 mg per day oral, 12 weeks, vs placebo) was “reduced a fasting blood LDL-C concentration as compared to the placebo administration”, the “fasting blood LDL-C concentration (rate of change from baseline)” value (NAFLD patients, entire group including patients taking an existing agent for reducing LDL-C, 0.4 mg per day oral (0.2 mg twice a day), 12 weeks, vs placebo) was “reduced a fasting blood LDL-C concentration as compared to the placebo administration” and the “fasting blood concentration of campesterol (absorption marker for cholesterol), rate of change from baseline” value [1] was “reduced the fasting blood concentration of sitosterol and the fasting blood concentration of campesterol”. The “fasting blood concentration of lathosterol (synthesis marker for cholesterol), rate of change from baseline” value [1] was “reduced the fasting blood concentration of lathosterol”, the “fasting blood concentration of sitosterol (absorption marker for cholesterol), rate of change from baseline” value [1] was “reduced the fasting blood concentration of sitosterol” and the “reducing effect on LDL-C for each initial value of the blood LDL-C” value (NAFLD patients, 0.4 mg per day oral, 12 weeks, FIG. 2) was “became larger as the blood LDL-C concentration before the administration thereof increased”.
